The text below walks through data of PMC6981454, “Promising 2,6,9-Trisubstituted Purine Derivatives for Anticancer Compounds: Synthesis, 3D-QSAR, and Preliminary Biological Assays” (International Journal of Molecular Sciences, 2019).

One data set relates to MRC-5. In words: MTT cytotoxicity assay, 72 h, normal control cells. The data set is classed as cell-based, human. The settings on record: Homo sapiens, MRC5, IC50 ± SD, normal fibroblasts. As for the experimental part: (§1) In our study, the human cancer cell lines used were CFAPC- 1 (pancreatic adenocarcinoma); NCI-H460 (large cell lung); HL-60 (acute promyelocytic leukaemia); CACO2 (colorectal adenocarcinoma); HCT-116 (colorectal carcinoma); K562 (chronic myeloid leukaemia); MCF-7 (breast adenocarcinoma); and MRC-5 control cells (normal fibroblasts).
(§2) CFAPC-1, NCI-H460 H1975, HL-60, HCT-116, CACO2, K562, MCF-7, and MCR-5 were grown and maintained in RPMI 1640 and DMEM F12 as appropriate with 10% fetal bovine serum, 100 UI/mL penicillin–streptomycin, and cultured al 37 °C in 5% CO2 humidified atmosphere. Control cultures were treated with dimethyl sulfoxide (1%) alone at the same concentration as in the purine derivatives treatment. Cell viability was determined by trypan blue dye exclusion. Cell numbers were counted in hemocytometer by light microscopy.
(§3) Cytotoxicity assays were performed by using the MTT reduction method as described in the literature. Briefly, cancer cell lines were plated in a flat-bottom 96-wells plate at 1 × 10^4 cells per well density. Then, the cells were incubated with synthetized compounds at different concentrations (from 0.1 to 100 µM) in 200 µL of 10% fetal bovine serum-RPMI or EMEM culture medium at 37 °C for 72 h. Then, 10 µL of MTT was added at a final concentration of 0.5 mg/mL, incubated at 37 °C for 4 h, and then solubilized with 10% sodium dodecyl sulphate (SDS) in 0.1 mM HCl and incubated overnight at 37 °C. Formazan formation was measured at 570 nm in a multi-well reader (StatFax 4200).

The next data set has as its system HL-60. The experiment in a line: MTT cytotoxicity assay, 72 h. The data set is classed as cell-based, human. To be noted: for IC50: Homo sapiens; for Selectivity Index (SI) MRC-5/HL-60: IC50 in MRC-5 / IC50 in HL-60. As for the experimental part: as §1, §2, §3
The test system of another data set is NCI-H460. The experiment in a line: MTT cytotoxicity assay, 72 h. The data set is classed as cell-based, human. To be noted: for Selectivity Index (SI) MRC-5/NCI-H460: IC50 in MRC-5 / IC50 in NCI-H460. As for the experimental part:
as §1, §2, §3
A general note: Tetrazolium assays rely on reduction of a dye to a coloured formazan, in cell work by metabolically active cells.

In a further data set the test system is K562. The experiment in a line: MTT cytotoxicity assay, 72 h. The data set is classed as cell-based, human. The settings on record: for IC50: MTT, 72 h, IC50 ± SD; for Selectivity Index (SI) MRC-5/K562: IC50 in MRC-5 / IC50 in K562. As for the experimental part:
as §1, §2, §3

Another data set relates to HCT-116. In words: MTT cytotoxicity assay, 72 h. The data set is classed as cell-based, human. The settings on record: Homo sapiens, HCT-116, IC50 ± SD. As for the experimental part:
as §1, §2, §3

The test system of the next data set is MCF-7. The experiment in a line: MTT cytotoxicity assay, 72 h. The data set is classed as cell-based, human. The settings on record: for IC50: Homo sapiens, MCF7, 72 h, MTT, 72 h, IC50 ± SD; for Selectivity Index (SI) MRC-5/MCF-7: IC50 in MRC-5 / IC50 in MCF-7. As for the experimental part: as §1, §2, §3
The test system of a further data set is CFPAC-1. The experiment in a line: MTT cytotoxicity assay, 72 h. Type of data set: cell-based, human. The settings on record: Homo sapiens, CFPAC-1, IC50 ± SD. As for the experimental part: as §1, §2, §3
A further data set has as its system CACO2. In words: MTT cytotoxicity assay, 72 h. The settings on record: Homo sapiens, Caco-2, IC50 ± SD. Type of data set: cell-based, human.
Another data set deals with pERK1/2. In words: Western blotting of pERK1/2 in MCF-7 cells. The settings on record: 10 µM, 1 h. Type of data set: cell-based, human. As for the experimental part:
Cell lysates were prepared by harvesting cells in Laemmli sample buffer. Proteins were separated on SDS polyacrylamide gels and electroblotted onto nitrocellulose membranes. After blocking, the membranes were incubated with specific primary antibodies overnight, washed, and then incubated with peroxidase-conjugated secondary antibodies. Finally, peroxidase activity was detected with SuperSignal West Pico reagents (Thermo Scientific, Waltham, MA, USA) using a CCD camera LAS-4000 (Fujifilm). Specific antibodies were purchased from Sigma-Aldrich (anti-α-tubulin, clone DM1A; peroxidase-labeled secondary antibodies) and Cell Signaling (anti-PARP, clone 46D11; anti-ERK1/2; anti-phospho-ERK1/2 T202/Y204).

The test system of the next data set is MCF7 cells. In words: Cell cycle distribution of MCF7 cells. The data set is classed as cell-based, human. The settings on record: Figure S5.
For a further data set, the system named is HL-60 cells. In words: Cell viability by propidium iodide flow cytometry. The data set is classed as cell-based, human. The settings on record: HL-60, 50 μM, 24 h, PI staining. An excerpt:
Next, in order to determinate the cell death type induced by the most promising compounds, we performed a flow cytometry analysis of cell viability in cell line HL-60 treated with the most promising compounds (selected according to their IC50 values and SI). The HL-60 cancer cells were chosen due to their sensitivity to prepared compounds. […] As a preliminary apoptosis filter, propidium iodide (PI) staining was used through flow cytometry analysis which discriminated a population of viable cells impermeable to PI (PI negative) from necrotic cells PI-permeable (PI positive) and apoptotic cells (the difference of the previous two). The results are shown in Figure 7, illustrating that all purine derivatives tested induced apoptosis on HL-60 cells. Around 40% of apoptotic cells were detected in a culture treated with compounds 7a and 7i, 30% by 7e, 7g, and 7h and 70% by 7d and 7j. […] (For dot plots, see Supplementary Information Figures S1–S3.)
Cell viability was analyzed by flow cytometry as previously described. In this assay, after setting the baseline to exclude cell debris, cells impermeable to propidium iodide (PI negative) are considered as viable. Two populations of PI-permeable dead cells are distinguished based on fluorescence intensity, corresponding to either hypodiploid apoptotic cells or necrotic cells with intact DNA. Here, HL60 cells were incubated with concentrations of 50 µM of each compound for 24 h at 37 °C. Cells were harvested and stained with 10 µg/mL of propidium iodide to determine cell viability. Samples containing roughly 1 × 10^4 cells were evaluated by flow cytometry (FACScanto II; Becton Dickinson, Mountain View, CA) and analyzed using FCS Express v6 software. Three independent biological replicates were performed.

For a further data set, the system named is cancer cell lines. To be noted: cited from earlier work.
The next data set has as its system p53. In words: p53-dependent transcriptional activity reporter assay (β-galactosidase) in Arn-8 cells. The data set is classed as cell-based, human. To be noted: Arn-8 cells, 24 h incubation, Table S3, control compound. As for the experimental part: Table S3. Results of p53 activity of compounds 4a-u and 7a-j.
Compound fold p53 activity […]
p53-dependent transcriptional activity
To measure p53-dependent transcriptional activity, -galactosidase activity was determined in the human melanoma cell line Arn-8, stably transfected with a p53-responsive reporter construct pRGC foslacZ as described before. After 24 h incubation with the inhibitors, the cells were permeabilized with 0.3% Triton X-100 for 15 min, and then 4-methylumbelliferon-ß-D-galactopyranoside was added as a substrate to a final concentration of 80 µM. […]
fluorescence was measured at 355/460 nm (ex/em) with a Fluoroskan Ascent microplate reader […]
Figure S6. Dose-response effect of roscovitine on p53 activity in ARN8 cells (control experiment).
(1 picture or pasted object on this page, not shown here)

The target in data set [1] is Hedgehog (Hh) signaling pathway. The arrangement: method as in PMID 24923765. To be noted: cited from earlier work.
[2] abbreviates: HL-60, 72 h, MTT, 72 h, IC50 ± SD, read-out: IC50 HL-60.
Setting [3] is: HL-60, -logIC50 in molar concentration, Table S1, read-out: Experimental pIC50 (HL-60) (converted).
Where [4] appears, read: Homo sapiens, NCI-H460, 72 h, MTT, 72 h, IC50 ± SD, read-out: IC50 NCI-H460.
[5] abbreviates: Homo sapiens, NCI-H460, -logIC50 in molar concentration, Table S2, read-out: Experimental pIC50 (NCI-H460) (converted).
Where [6] appears, read: MTT, 72 h, IC50 ± SD, read-out: IC50 NCI-H460.

Read-outs that look alike come from different tables or passages of the source. Some results are limits rather than exact numbers.

Experimental for CACO2: Cytotoxicity assays were performed by using the MTT reduction method as described in the literature [23, 37]. Briefly, cancer cell lines were plated in a flat-bottom 96-wells plate at 1 × 10^4 cells per well density. Then, the cells were incubated with synthetized compounds at different concentrations (from 0.1 to 100 µM) in 200 µL of 10% fetal bovine serum-RPMI or EMEM culture medium at 37 °C for 72 h. Then, 10 µL of MTT was added at a final concentration of 0.5 mg/mL, incubated at 37 °C for 4 h, and then solubilized with 10% sodium dodecyl sulphate (SDS) in 0.1 mM HCl and incubated overnight at 37 °C. Formazan formation was measured at 570 nm in a multi-well reader (StatFax 4200).

As for `FC(F)(F)c1ccc(N2CCN(c3nc(Cl)nc4c3ncn4C3CCCC3)CC2)nc1` [7c, 2-Chloro-9-cyclopentyl-6-(4-(5-(trifluoromethyl)pyridin-2-yl)piperazin-1-yl)-9H-purine], the melting point – broadly, the temperature of the solid-liquid transition – was in the range of 160 to 162 °C. Besides, the IC50 in the data set with MRC-5 stood at 56000 ± 1000 nM. Further, in the data set on HL-60 (setting [2]), the IC50 is 17000 ± 2300 nM. Moreover, the IC50 in the data set on HL-60 (setting [3]) is 17000 nM. The “Selectivity Index (SI) MRC-5/HL-60” value in the data set with HL-60 is 3.3. For the same molecule, the IC50 in the data set on NCI-H460 (setting [4]) is 4800 nM. Also, in the data set on NCI-H460 (setting [5]), the IC50 is 4790 nM. In the data set on NCI-H460, the “Selectivity Index (SI) MRC-5/NCI-H460” value turned out to be 11.7. Also, the IC50 in the data set with NCI-H460 (setting [6]) is 4790 ± 70 nM. This molecule showed an IC50 in the data set with K562 (Homo sapiens, K562, 72 h) of 400 to 1500 nM. In the data set on K562, the “Selectivity Index (SI) MRC-5/K562” value was 143.6 and the IC50 turned out to be 390 ± 30 nM. The IC50 in the data set with HCT-116 is over 50000 nM. Further, in the data set on MCF-7, the IC50 worked out at 520 ± 50 nM and the “Selectivity Index (SI) MRC-5/MCF-7” value was determined as 107.7. The IC50 with CFPAC-1 was over 100000 nM. Also, the IC50 in the data set with CACO2 is over 100000 nM.
As for `Clc1ccc(N2CCN(c3nc(Cl)nc4c3ncn4C3CCCC3)CC2)cc1` [7g, 2-Chloro-6-(4-(4-chlorophenyl)piperazin-1-yl)-9-cyclopentyl-9H-purine], the “level of mitogenic transducer pERK1/2” value with pERK1/2 is “potently reduced”. The IC50 in the data set on MRC-5 was 2540 ± 170 nM; in the data set with HL-60 (setting [2]) it was 300 ± 60 nM; in the data set with HL-60 (setting [3]), 300 nM; in the data set on NCI-H460 (setting [4]), 2200 nM; with NCI-H460 (setting [5]), 2210 nM; in the data set with NCI-H460 (setting [6]), 2210 ± 30 nM. The IC50 in the data set on K562 (Homo sapiens, K562, 72 h) is 710 ± 70 nM; with HCT-116 it was over 50000 nM; in the data set on MCF-7, 970 ± 70 nM; in the data set with CFPAC-1, over 100000 nM; with CACO2, over 100000 nM. Besides, in the data set with HL-60, the “Selectivity Index (SI) MRC-5/HL-60” value was determined as 8.5. The “Selectivity Index (SI) MRC-5/NCI-H460” value with NCI-H460 is 1.1. Further, in the data set with K562, the “Selectivity Index (SI) MRC-5/K562” value is given as 3.6. In the data set on MCF-7, the “Selectivity Index (SI) MRC-5/MCF-7” value came out at 2.6. In addition, the “population of MCF7 cells in the G1-phase” value in the data set on MCF7 cells is reported as “slightly increased”. Moreover, the apoptotic cells in the data set with HL-60 cells is recorded as about 30%.
Take `OC[C@H]1O[C@@H](n2cnc3c(N4CCN(c5ccc(C(F)(F)F)cc5)CC4)nc(Cl)nc32)[C@H](O)[C@@H]1O` [II]: the “IC50 on some cancer cell lines” value with cancer cell lines is “sub-micromolar”.
With `FC(F)(F)c1ccc(N2CCN(c3ncnc4c3ncn4C3CCCC3)CC2)cc1` [I], the “IC50 on some cancer cell lines” value in the data set on cancer cell lines was “sub-micromolar”.
As to `CC[C@H](CO)Nc1nc(NCc2ccccc2)c2ncn(C(C)C)c2n1` [Roscovitine, reference compound], the “fold p53 activity” value with p53 was 33.9.
Regarding `CCNCc1ccc(C)c(NC(=O)c2ccc(Nc3nc(-c4ccc(OC(F)(F)F)cc4)c4ncn(C)c4n3)cc2)c1` [V], in data set [1], the “IC50 in Gli-luciferase reporter assay” value is reported as “nanomolar scale”.
